This is an account of results in US20030096022A1, “Compositions and methods for the treatment and prevention of cardiovascular diseases and disorders, and for identifying agents therapeutic therefor” (Medlyte, Inc., priority 2000, published 2003).

One assay deals with Adult rat cardiomyocytes. Kind of assay: Hypoxia-induced sphingosine (SPH) production/release in cultured adult cardiomyocytes, HPLC of extracted sphingolipids. The following applies: cells pretreated 30 min with TNFRII:Fc 0.5 ng/mL or L-carnitine 20 ng/mL prior to 5 h hypoxia, FIG. 4. Type of assay: cell-based. The protocol: Adult rat cardiomyocytes were subjected to hypoxic conditions as described above and assayed for their ability to produce sphingolipid bases involved in the sphingomyelin signal transduction cascade.
Cardiomyocytes were cultured on plastic dishes that were placed in a humidified modular incubator chamber (ICN Biomedicals, Aurora, Ohio) pressurized to 0.04-0.05 psi by the particular gas mixture used in the treatment. Warm (37° C.) Tyrode's solution containing 0.2 mM BSA, ampicillin ([…]), kanamycin (100 mg/mL) and fungizone (20 μg/mL) was gassed in a 50 mL sterile conical for 15 minutes with 95%N2/5% CO2 prior to adding the solution to the cultured cells. The pO2 was monitored by a Micro pO2 System oxygen electrode (Lasar Research Labs, Los Angeles, Calif.) and found to be 4.0 PPM for the duration of the hypoxia condition. […] The pH of control and experimental cell cultures was monitored with a micro pH electrode (Beetrode pH Electrodes, Sarasota, Fla.) and remained constant at pH=7.26+/−0.02 for normoxic cells and 7.15+/−0.03 for hypoxic cells throughout the experiment. […]
The HPLC analysis was performed using a Beckman (Fullerton, Calif.) System Gold 118 Solvent Module and 507e Autosampler. A Jasco (Easton, Md.) FP-920 Intelligent Fluorescence Detector was used with an excitation wavelength of 330 nm and emission wavelength of 455 nm. […]

For assay [1], the target named is tumor necrosis factor alpha (TNFα) released by hypoxic rat cardiomyocytes (rat) (UniProt P16599). Description: cell-based or functional assay.
tumor necrosis factor alpha (TNFα) released by hypoxic rat cardiomyocytes (rat), sequence (P16599 80-235 limits assumed): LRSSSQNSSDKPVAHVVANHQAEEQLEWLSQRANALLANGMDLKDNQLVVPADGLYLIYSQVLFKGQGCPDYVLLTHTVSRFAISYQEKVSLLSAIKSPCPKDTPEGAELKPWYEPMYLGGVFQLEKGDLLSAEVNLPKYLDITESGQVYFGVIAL
For assay [2], the system named is Langendorff rat heart model of ischemia. Kind of assay: Global ischemia and reperfusion in isolated Langendorff-perfused rat heart (left ventricular pressure). Particulars: 0.1 mM gentamicin recirculated 30 min, 40 min global ischemia, 45 min reperfusion; FIG. 5. An excerpt: The protocol used was essentially that described by Sakai et al. (A device for recording left ventricular contraction and electrocardiogram in nonworking isolated perfused rat heart, Jpn J Pharmacol 28:223-9, 1978), and Zelinski et al., (Phosphatidylcholine biosynthesis in isolated hamster heart, J Biol Chem. 255:11423-8, 1980) with the exception, in the latter instance, that rat studies were used in the experiments described herein instead of hamster hearts.
In brief, rats were anesthetized and their hearts were excised. The isolated hearts were cannulated and attached to Langendorff perfusion apparatus, and perfused with KH buffer. The hearts were allowed to stabilize for 5-10 min. After stabilization, the hearts should be paceable and drip rate should be between 5 and 10 mls per minute.
A small hole was cut in the left atrium of each animal to expose the mitral valve. A deflated transducer balloon was introduced into the left ventricle through the hole in left atrium. The transducer tube was taped and adjusted so that there was no pressure on the heart. Left ventricular pressure was measured and recorded using the MacLab program. […]
After about 45 min., the perfusate was turned off and the ventricular pressure was no longer recorded. […]

Take `C[N+](C)(C)C[C@H](O)CC(=O)[O-]` [L-carnitine]: the entries for the “reducing the amount of total SPH (hypoxia-induced production of sphingosine)” value in the assay with Adult rat cardiomyocytes and in the assay with Adult rat cardiomyocytes (listed as L-camitine) were “significantly (p<0.01) reducing” and “blocks”, respectively. “TNFRII:Fc receptor fragment (from UniProt P20333 23-257) (Fc fusion)”: the SPH release from hypoxic adult rat cardiomyocytes (HPLC) in assay [1] stood at 3 fold.

Regarding Gentamicin Sulfate, the “ischemia and reperfusion injury” value in assay [2] is given as “mitigated”.
